Assay results reported in ChEMBL document CHEMBL5465560, “Selectivity Literature for EUbOPEN Chemogenomic Library” (2024).
Each block holds one molecule with its values, some of them ahead of it.

Assays:
[1] = target: T1, Inhibitor of nuclear factor kappa-B kinase subunit beta (Homo sapiens) (UniProt O14920); assay: Selectivity interaction (Kinase panel (Invitrogen)) EUB0000639a IKBKB; details: at 200 nM
T1 sequence (whole entry): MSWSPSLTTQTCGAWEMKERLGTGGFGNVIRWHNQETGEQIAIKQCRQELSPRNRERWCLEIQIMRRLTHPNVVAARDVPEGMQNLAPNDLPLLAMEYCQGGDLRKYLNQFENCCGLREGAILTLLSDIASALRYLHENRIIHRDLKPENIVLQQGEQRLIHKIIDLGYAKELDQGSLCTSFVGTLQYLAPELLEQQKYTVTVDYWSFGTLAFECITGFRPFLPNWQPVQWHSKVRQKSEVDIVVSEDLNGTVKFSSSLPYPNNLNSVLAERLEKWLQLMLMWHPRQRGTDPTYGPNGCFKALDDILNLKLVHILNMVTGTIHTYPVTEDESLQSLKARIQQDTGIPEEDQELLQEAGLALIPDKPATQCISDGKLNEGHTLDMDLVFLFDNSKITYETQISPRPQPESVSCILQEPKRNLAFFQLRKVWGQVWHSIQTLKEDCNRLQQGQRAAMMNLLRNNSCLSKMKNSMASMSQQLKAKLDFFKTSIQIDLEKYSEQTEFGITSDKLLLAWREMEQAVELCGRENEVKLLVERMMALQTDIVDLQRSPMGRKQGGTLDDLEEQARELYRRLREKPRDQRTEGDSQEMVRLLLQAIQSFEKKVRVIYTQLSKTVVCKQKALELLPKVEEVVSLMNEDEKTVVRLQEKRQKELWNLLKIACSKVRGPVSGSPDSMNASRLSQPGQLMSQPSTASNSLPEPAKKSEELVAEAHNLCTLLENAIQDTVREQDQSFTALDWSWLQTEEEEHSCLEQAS

[2] = target: Cyclin-dependent kinase 17 (Homo sapiens) (UniProt Q00537); assay: Selectivity interaction (ActivX KiNativ screen (kinase selectivity in THP-1 cell lysates)) EUB0000639a CDK17; type: subcellular; details: lysate, at 0.2 µM
[3] = target: Tyrosine-protein kinase JAK1 (Homo sapiens, UniProt P23458); assay: Selectivity interaction (Kinase panel (33PanQinase(R) Activity Assay)) EUB0000877a JAK1
[4] = target: T2, Muscle, skeletal receptor tyrosine-protein kinase (Homo sapiens) (UniProt O15146); assay: Selectivity interaction (KinomeScan (DiscoverX)) EUB0000595a MUSK; details: at 10 µM
T2 sequence (whole entry): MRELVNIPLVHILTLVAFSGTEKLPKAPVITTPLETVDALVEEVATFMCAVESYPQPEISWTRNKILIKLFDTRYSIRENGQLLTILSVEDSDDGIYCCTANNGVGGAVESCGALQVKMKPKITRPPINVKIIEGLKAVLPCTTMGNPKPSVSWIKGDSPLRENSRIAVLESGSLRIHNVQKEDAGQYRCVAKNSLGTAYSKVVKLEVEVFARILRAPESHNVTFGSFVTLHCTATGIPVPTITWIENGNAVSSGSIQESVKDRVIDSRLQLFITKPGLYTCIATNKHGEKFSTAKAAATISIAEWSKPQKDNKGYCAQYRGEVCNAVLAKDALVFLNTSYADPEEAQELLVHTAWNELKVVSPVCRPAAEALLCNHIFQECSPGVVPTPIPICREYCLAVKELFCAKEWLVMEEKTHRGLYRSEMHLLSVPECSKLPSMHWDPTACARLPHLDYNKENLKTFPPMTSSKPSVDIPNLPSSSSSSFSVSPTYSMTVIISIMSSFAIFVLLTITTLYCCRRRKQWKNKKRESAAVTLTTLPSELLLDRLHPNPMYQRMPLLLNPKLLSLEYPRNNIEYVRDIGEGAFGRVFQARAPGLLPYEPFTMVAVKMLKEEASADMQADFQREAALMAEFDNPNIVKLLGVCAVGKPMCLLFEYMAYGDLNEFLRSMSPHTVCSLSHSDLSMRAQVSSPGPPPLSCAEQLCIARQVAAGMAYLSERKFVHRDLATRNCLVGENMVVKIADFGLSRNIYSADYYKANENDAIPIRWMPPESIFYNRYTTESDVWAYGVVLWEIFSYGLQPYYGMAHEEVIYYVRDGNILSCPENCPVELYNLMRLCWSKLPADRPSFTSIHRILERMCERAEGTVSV

[5] = target: T3, Receptor-type tyrosine-protein kinase FLT3 (Homo sapiens, UniProt P36888); assay: Selectivity interaction (Kinase panel (Invitrogen, enzymatic assay)) EUB0000162b FLT3
T3 sequence (P36888 whole entry): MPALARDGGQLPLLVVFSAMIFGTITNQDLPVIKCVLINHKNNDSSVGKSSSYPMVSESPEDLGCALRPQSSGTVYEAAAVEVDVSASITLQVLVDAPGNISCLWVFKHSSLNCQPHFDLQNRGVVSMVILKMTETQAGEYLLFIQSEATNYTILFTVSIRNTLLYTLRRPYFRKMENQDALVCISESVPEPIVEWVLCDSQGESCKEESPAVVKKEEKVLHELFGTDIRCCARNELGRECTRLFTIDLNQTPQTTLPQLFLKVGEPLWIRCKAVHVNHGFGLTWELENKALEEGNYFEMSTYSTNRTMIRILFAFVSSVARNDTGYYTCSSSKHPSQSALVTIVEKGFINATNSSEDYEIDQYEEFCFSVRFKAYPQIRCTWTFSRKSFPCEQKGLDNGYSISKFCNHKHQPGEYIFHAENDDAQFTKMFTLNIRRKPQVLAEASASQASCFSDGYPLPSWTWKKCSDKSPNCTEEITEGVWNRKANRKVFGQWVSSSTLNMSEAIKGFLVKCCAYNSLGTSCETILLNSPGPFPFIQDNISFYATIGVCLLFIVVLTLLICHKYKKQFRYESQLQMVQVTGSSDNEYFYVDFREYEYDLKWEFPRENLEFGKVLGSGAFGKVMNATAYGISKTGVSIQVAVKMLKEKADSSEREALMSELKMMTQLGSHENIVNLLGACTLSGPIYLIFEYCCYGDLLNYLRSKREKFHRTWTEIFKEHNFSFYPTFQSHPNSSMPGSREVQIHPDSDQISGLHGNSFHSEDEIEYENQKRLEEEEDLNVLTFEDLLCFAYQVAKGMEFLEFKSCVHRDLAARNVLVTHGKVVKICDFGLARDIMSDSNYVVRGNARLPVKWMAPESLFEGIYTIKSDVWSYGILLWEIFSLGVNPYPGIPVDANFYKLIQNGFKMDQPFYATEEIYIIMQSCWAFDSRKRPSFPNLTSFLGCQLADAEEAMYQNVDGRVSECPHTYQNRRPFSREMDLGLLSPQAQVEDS

[6] = target: Death-associated protein kinase 3 (Homo sapiens) (UniProt O43293); assay: Selectivity interaction (KinomeScan (DiscoverX)) EUB0000607a DAPK3; details: at 10 µM
Death-associated protein kinase 3 (Homo sapiens), sequence (O43293 whole entry, looked up): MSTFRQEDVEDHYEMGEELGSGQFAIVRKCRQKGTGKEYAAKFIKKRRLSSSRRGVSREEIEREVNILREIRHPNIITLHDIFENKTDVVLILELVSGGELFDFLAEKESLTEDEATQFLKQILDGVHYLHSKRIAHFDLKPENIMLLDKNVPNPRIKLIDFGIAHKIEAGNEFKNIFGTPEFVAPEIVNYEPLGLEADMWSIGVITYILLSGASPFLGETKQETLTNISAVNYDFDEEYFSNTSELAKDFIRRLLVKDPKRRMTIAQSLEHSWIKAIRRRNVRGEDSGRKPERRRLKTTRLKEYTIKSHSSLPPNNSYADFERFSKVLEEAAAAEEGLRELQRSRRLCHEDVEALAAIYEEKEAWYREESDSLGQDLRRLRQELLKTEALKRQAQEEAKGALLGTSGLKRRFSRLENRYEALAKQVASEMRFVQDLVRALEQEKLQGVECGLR

Cyclin-dependent kinase 17 (Homo sapiens), sequence (Q00537 whole entry, looked up): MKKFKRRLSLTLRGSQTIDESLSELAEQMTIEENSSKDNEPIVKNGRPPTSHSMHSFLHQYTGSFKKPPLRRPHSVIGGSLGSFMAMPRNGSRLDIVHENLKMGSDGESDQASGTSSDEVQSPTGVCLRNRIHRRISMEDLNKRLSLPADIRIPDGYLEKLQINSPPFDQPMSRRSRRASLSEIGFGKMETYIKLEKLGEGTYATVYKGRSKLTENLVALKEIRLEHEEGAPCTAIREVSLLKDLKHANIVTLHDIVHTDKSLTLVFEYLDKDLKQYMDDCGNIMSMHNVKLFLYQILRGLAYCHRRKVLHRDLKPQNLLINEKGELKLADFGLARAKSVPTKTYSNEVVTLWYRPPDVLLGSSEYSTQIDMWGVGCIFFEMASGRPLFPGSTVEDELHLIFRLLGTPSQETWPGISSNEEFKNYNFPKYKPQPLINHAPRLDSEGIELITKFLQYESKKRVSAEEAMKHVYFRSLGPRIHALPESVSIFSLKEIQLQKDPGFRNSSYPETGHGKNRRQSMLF
Tyrosine-protein kinase JAK1, sequence (P23458 whole entry): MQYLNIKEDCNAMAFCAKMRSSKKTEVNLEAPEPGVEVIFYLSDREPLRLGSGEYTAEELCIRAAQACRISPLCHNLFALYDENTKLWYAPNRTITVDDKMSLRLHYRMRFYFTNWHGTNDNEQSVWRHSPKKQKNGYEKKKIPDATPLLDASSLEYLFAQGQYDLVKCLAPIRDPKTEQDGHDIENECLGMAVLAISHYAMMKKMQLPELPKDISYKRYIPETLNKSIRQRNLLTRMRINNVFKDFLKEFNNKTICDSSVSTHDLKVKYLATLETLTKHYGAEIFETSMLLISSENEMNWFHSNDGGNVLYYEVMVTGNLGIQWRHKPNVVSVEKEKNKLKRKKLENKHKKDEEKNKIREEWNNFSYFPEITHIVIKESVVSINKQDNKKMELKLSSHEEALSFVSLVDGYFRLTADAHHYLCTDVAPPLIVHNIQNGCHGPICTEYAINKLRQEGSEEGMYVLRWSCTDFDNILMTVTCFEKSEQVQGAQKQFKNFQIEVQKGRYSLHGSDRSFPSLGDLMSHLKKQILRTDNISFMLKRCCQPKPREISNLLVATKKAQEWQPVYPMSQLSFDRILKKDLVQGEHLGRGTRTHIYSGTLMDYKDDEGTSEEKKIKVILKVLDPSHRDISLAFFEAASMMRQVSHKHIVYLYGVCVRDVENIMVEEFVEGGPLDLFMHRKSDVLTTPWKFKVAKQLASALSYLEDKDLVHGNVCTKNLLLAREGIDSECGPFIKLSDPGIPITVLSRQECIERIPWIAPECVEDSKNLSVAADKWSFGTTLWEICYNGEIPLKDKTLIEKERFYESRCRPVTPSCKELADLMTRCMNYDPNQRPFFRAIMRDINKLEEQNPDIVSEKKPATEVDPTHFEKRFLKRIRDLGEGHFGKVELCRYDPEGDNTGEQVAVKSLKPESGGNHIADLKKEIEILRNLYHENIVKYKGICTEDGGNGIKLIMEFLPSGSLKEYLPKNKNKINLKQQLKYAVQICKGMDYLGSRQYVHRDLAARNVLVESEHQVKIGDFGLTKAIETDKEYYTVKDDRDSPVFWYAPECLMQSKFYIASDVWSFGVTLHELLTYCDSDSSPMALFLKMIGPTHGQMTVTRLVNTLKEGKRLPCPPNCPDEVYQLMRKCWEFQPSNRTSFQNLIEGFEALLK

Structure (SMILES): COCC(=O)NC/C=C/c1ccc2ncnc(Nc3ccc(Oc4ccc(C)nc4)c(C)c3)c2c1 [CP-724714]
% of control [4]: 100%

Structure (SMILES): CN(C)C(=O)Cn1cc(-c2ccc(-c3cncc4ccccc34)cc2)cn1
IC50 [5]: 1.36 µM

Structure (SMILES): CNC(=O)Nc1ccc(-c2nc(N3CC4CCC(C3)O4)c3cnn(C4CCC5(CC4)OCCO5)c3n2)cc1
% of control [6]: 100%

More lines, now with the values ahead:

% of inhibition [1]: 4.3% | % of inhibition [2]: 0.4%
Structure (SMILES): CC[C@@H]1[C@H](F)C(=O)N[C@@H]1COc1nccc2cc(C(N)=O)c(OC)cc12 [ZIMLOVISERTIB]

IC50 [3]: > 10 µM
Structure (SMILES): CCC(=O)N1CC[C@H](Nc2ncnc3c2CN(c2cnc(OC)c(C(F)(F)F)c2)CC3)C1 [LENIOLISIB]
